Tested on: Staphylococcus epidermis ATCC 35984 biofilm
Assay: MBIC assay (biofilm inhibition, crystal violet)
Type: cell-based, S. epidermidis
Conditions: 48 h incubation, absorbance 540 nm
Protocol: The exact weighed amount was noted and the volume of solvent to reach a 80 mM dilution calculated. Half of the volume was added first, by adding Tween 80. In a second step, the other half of the volume DMSO was added and the closed tube inverted 5-10 times and then vortexed very thoroughly for at least 30 seconds. If after this procedure unsolved material was still visible, the tube was placed in a shaker at 37° C. at 150 rpm for at least 30 minutes. […] For the MBEC assay (method 1.3) the solution needs to be diluted to a final concentration of 2 mM in 0.9% saline solution and then further diluted to 1 mM, 0.5 mM, 0.25 mM and 0.125 mM in saline. Those dilutions were added as treatment to the 96 well plates with the grown biofilm (see method 3).
Frozen aliquots of Staphylococcus epidermis ATCC 35984 and Pseudomonas aeruginosa ATCC 27853 were used to inoculate a tryptic soy agar (TSA) plate and were incubated overnight at 37° C. After incubation 3-5 well-isolated colonies with the same morphology were selected from the TSA plate and resuspended in 2 mL 0.9% saline solution with 3-6 glass beads and vortexed. The optical density of the bacterial suspension was measured at 600 nm (OD600) with a spectrophotometer (Evolution™ 201/220 UV-Visible Spectrophotometer, Thermo Fisher Scientific) and diluted to an OD600 of 0.2. The MBIC assay was performed in a 96-microtiter plate. 50 μL of TSB was added into columns 2-11, and 100 μL to column 12 for sterility control. 100 μL of the 8 mM test compound solution (method 1) was added to column 1. A two-fold dilution series of the solution in TSB was achieved by resuspending 50 μL of the 8 mM solution from column 1 in column 2. This step was repeated until column 10. The respective concentration of Tween 80 and DMSO in column 1 is at 2.5%, which is two-fold diluted throughout the plate. 50 μL of the bacterial suspension was added to column 1-11. The microtiter plates were sealed with adhesive polyethylene film for sealing microplates (Diversified Biotech) and incubated for 48 h at 37° C. After incubation the supernatant is carefully removed and the well with the biofilm washed for one time with 100 μL 0.9% saline solution. 100 μL 0.1 M HCl was added and incubated for 1 h at room temperature to fix the biofilm. After incubation the HCl was removed and 100 μL crystal violet (0.1% v/v in water) was added and incubated for 30 min at room temperature. The unbound crystal violet was removed and the wells washed one time with 100 μL demineralized water. 100 μL 30% acetic acid was added and incubated for 1 h at 37° C. and 150 rpm. The solution was resuspended and transferred to a flat-bottom 96-well plate and the absorbance measured at 540 nm with the spectrophotometer. This assay was repeated two times in two independent experiments.

Row | Structure (SMILES) | S. epidermidis MBIC90 [mM]
1 | CSS(C)(=O)=O [Di-methyl thiosulfonate, methyl methane thiosulfonate] | >4
2 | CCCS[S+]([O-])CCC (centres unmarked) [Di-n-propyl thiosulfinate, S-propyl propane-1-sulfinothioate] | >4

From patent US20240374535A1, “COMPOSITIONS AND METHODS FOR TREATING BIOFILM DISORDERS AND INFECTIONS” (AHV International B.V., priority 2021, published 2024)
